The source of these data is ChEMBL document CHEMBL3098076, “Triazino indole-quinoline hybrid: a novel approach to antileishmanial agents” (Bioorg Med Chem Lett, 2014).

In general, CC50 refers to the concentration that lowers cell viability or growth by half. For orientation: IC50 means the concentration needed to halve the response being measured.

Data set [1] in a line: (§1) Selectivity index, ratio of CC50 for African green monkey Vero cells to IC50 for amastigote stage of Leishmania donovani MHOM/IN/80/Dd8. It counts as functional.
Data set [2] is described as follows: (§2) Cytotoxicity against African green monkey Vero cells after 72 hrs by MTT assay. The format is cell-based. The following applies: chlorocebus sabaeus, Vero cells. Background: Tetrazolium dyes change colour on reduction, which living cells bring about.
Data set [3] deals with Leishmania donovani. In words: Antileishmanial activity against intracellular amastigote stage of Leishmania donovani MHOM/IN/80/Dd8 expressing luciferase firefly reporter gene infected in mouse J774A1 cells after 72 hrs by luminescence assay. The format is functional, organism-based, J774.A1. A general note: Reporter assays use an easily measured gene product as a stand-in for the process of interest.

The subject of data set [4] is Leishmania donovani. As to the kind of experiment: Antileishmanial activity against extracellular promastigote stage of Leishmania donovani. The format is functional, organism-based.
The test system of data set [5] is Vero. The description is as §2. The format is cell-based. The following applies: chlorocebus sabaeus, vero, 72 h.
Data set [6] has as its system Vero. The data set is described as §1. It counts as functional.
Setting [7] is: Leishmania donovani, MHOM/IN/80/Dd8, J774.A1, 72 h, read-out: IC50.

Bounds are passed on as bounds.

Consider `Cn1c2ccccc2c2nnc(SCCNc3ccnc4cc(Cl)ccc34)nc21`, for which the “Ratio CC50/IC50” value in data set [1] is reported as over 1111. In addition, the CC50 at 72 h in data set [2] is over 400 µM. The IC50 with Leishmania donovani [3] (setting [7]) worked out at 0.36 µM; in the data set on Leishmania donovani [4] (Leishmania donovani) it was 6.27 µM.

For `Cn1c2ccc([N+](=O)[O-])cc2c2nnc(SCCNc3ccnc4cc(Cl)ccc34)nc21`, the figures for the IC50 entry in the data set with Leishmania donovani [3] (j774.a1) and in the data set with Leishmania donovani [4] (Leishmania donovani) were “ND(toxic)” and 1.95 µM, respectively.

Compound “SODIUM ANTIMONY GLUCONATE [listing 1 of 2 here]” came in with a CC50 in the data set with Vero [5] of over 400 µM. Further, the IC50 was 54.6 µM in the data set on Leishmania donovani [3] (j774.a1, read-out: IC50) and over 200 µM in the data set on Leishmania donovani [4].

As to `CC(C)n1c2ccccc2c2nnc(SCCNc3ccnc4cc(Cl)ccc34)nc21`, the “Ratio CC50/IC50” value in data set [1] was found to be 7. This compound also showed a cytotoxic concentration (CC50) at 72 h in data set [2] of 19.4 µM. Besides, the IC50 in the data set on Leishmania donovani [3] (setting [7]) was 2.88 µM; in the data set with Leishmania donovani [4] (Leishmania donovani), 21.9 µM.

For the compound “SODIUM ANTIMONY GLUCONATE [listing 2 of 2 here]”, in the data set with Vero [6], the Ratio CC50/IC50 is over 7.

On to `Cn1c2ccccc2c2nnc(SCCCCCNc3ccnc4cc(Cl)ccc34)nc21`, for which the IC50 result in the data set on Leishmania donovani [3] (j774.a1) is “ND(toxic)”; with Leishmania donovani [4] (Leishmania donovani), 15 µM.

`C=CCn1c2ccccc2c2nnc(SCCNc3ccnc4cc(Cl)ccc34)nc21`: the “Ratio CC50/IC50” value in data set [1] was found to be 1. In data set [2], this compound returned a CC50 at 72 h of 10.5 µM. Besides, the IC50 in the data set on Leishmania donovani [3] (setting [7]) came to 10.1 µM; in the data set on Leishmania donovani [4] (Leishmania donovani), 7.9 µM.

For `CCn1c2ccc(Br)cc2c2nnc(SCCNc3ccnc4cc(Cl)ccc34)nc21`, the IC50 in the data set with Leishmania donovani [3] (setting [7]) and in the data set on Leishmania donovani [4] (Leishmania donovani) was over 40 µM each time.

Consider `CCCCn1c2ccccc2c2nnc(SCCNc3ccnc4cc(Cl)ccc34)nc21`, for which the IC50 with Leishmania donovani [3] (setting [7]) is 29.5 µM; with Leishmania donovani [4] (Leishmania donovani) it was over 40 µM.

Take `Clc1ccc2c(NCCSc3nnc4c(n3)[nH]c3ccc(Br)cc34)ccnc2c1`: the figures for the IC50 entry in the data set with Leishmania donovani [3] (j774.a1) and with Leishmania donovani [4] (Leishmania donovani) were “ND(toxic)” and 7.09 µM, respectively.

With `CC(C)Cn1c2ccccc2c2nnc(SCCNc3ccnc4cc(Cl)ccc34)nc21`, the “Ratio CC50/IC50” value in data set [1] amounted to 5. The same compound gave a CC50 at 72 h in data set [2] of 28.6 µM. Further, the IC50 came to 5.69 µM with Leishmania donovani [3] (setting [7]) and 17 µM in the data set with Leishmania donovani [4] (Leishmania donovani).

With `Cn1c2ccccc2c2nnc(SCCCNc3ccnc4cc(Cl)ccc34)nc21`, the IC50 result was “ND(toxic)” in the data set with Leishmania donovani [3] (j774.a1) and 24.1 µM with Leishmania donovani [4] (Leishmania donovani).

For the compound `CCCCCCCCCCCCCCCCOP(=O)([O-])OCC[N+](C)(C)C` [MILTEFOSINE], the “Ratio CC50/IC50” value in data set [1] was determined as 7. The compound also yielded an IC50 with Leishmania donovani [4] (Leishmania donovani) of 1.1 µM.

Regarding `CCn1c2ccccc2c2nnc(SCCNc3ccnc4cc(Cl)ccc34)nc21`, the “Ratio CC50/IC50” value in data set [1] is recorded as 7. Besides, in data set [2], the CC50 at 72 h was found to be 61.5 µM. The IC50 in the data set with Leishmania donovani [3] (setting [7]) came out at 7.1 µM; in the data set on Leishmania donovani [4] (Leishmania donovani), 9.1 µM.

As to `CCn1c2ccccc2c2nnc(SCCCNc3ccnc4cc(Cl)ccc34)nc21`, the figures for the IC50 entry with Leishmania donovani [3] (j774.a1) and in the data set on Leishmania donovani [4] (Leishmania donovani) were “ND(toxic)” and 2.66 µM, respectively.

For `CCn1c2ccccc2c2nnc(SCCCCCNc3ccnc4cc(Cl)ccc34)nc21`, the IC50 result with Leishmania donovani [3] (j774.a1) is “ND(toxic)”; in the data set on Leishmania donovani [4] (Leishmania donovani), 8.95 µM.

Turning to `Clc1ccc2c(NCCCSc3nnc4c(n3)[nH]c3ccccc34)ccnc2c1`, the IC50 entry in the data set on Leishmania donovani [3] (j774.a1) is “ND(toxic)”; with Leishmania donovani [4] (Leishmania donovani), 18.9 µM.

Turning to `CCCn1c2ccccc2c2nnc(SCCNc3ccnc4cc(Cl)ccc34)nc21`, in data set [1], the “Ratio CC50/IC50” value was determined as 3. The compound also returned a CC50 at 72 h in data set [2] of 41.7 µM. For the same compound, the IC50 was 14.7 µM with Leishmania donovani [3] (setting [7]) and over 40 µM in the data set on Leishmania donovani [4] (Leishmania donovani).

On to `Cn1c2nc(SCCNc3ccnc4cc(Cl)ccc34)nnc2c2cccc(C(F)(F)F)c21`, for which the “Ratio CC50/IC50” value in data set [1] was 6. Also, the CC50 at 72 h in data set [2] worked out at 39.3 µM. In addition, the IC50 with Leishmania donovani [3] (setting [7]) and with Leishmania donovani [4] (Leishmania donovani) was 6.46 µM in each case.

Consider `Cn1c2ccc(Br)cc2c2nnc(SCCNc3ccnc4cc(Cl)ccc34)nc21`, for which the IC50 in the data set on Leishmania donovani [3] (setting [7]) and in the data set on Leishmania donovani [4] (Leishmania donovani) was over 40 µM throughout.

Consider `Clc1ccc2c(NCCSc3nnc4c(n3)[nH]c3ccccc34)ccnc2c1`, for which, in data set [1], the “Ratio CC50/IC50” value is 67. The compound further showed a CC50 at 72 h in data set [2] of 74.3 µM. In addition, the IC50 is 1.11 µM in the data set on Leishmania donovani [3] (setting [7]) and 8.75 µM in the data set with Leishmania donovani [4] (Leishmania donovani).

`Clc1ccc2c(NCCSc3nnc4c5ccccc5n(Cc5ccccc5)c4n3)ccnc2c1`: the results for the IC50 result with Leishmania donovani [3] (j774.a1) and in the data set on Leishmania donovani [4] (Leishmania donovani) were “ND(toxic)” and 8.08 µM, respectively.
